Source: patent US8614201B2 (Janssen Pharmaceutica NV, priority 2009, dated 2013)

Biological target: Human TRPA1 (Homo sapiens, UniProt O75762)
Experiment: Alternative TRPA1 Ca2+ fluorometry assay (hTRPA1/TREx-HEK293 cells, Fluo-4, FDSS 6000)
Assay type: cell-based
Design: expressed in transfected cells
Settings: Fluo-4-AM, agonist 6,11-dihydro-5H-dibenzo[b,e]azepine-10-carboxylic acid methyl ester 25 nM, procedure used for Examples 184, 190 to 192, 194 to 316
Description: In alternative embodiments, the assay was performed using the following procedure for Examples 184, 190 to 192, and 194 to 316:
The human TRPA1 gene was cloned into the pT-Rex-Dest30 inducible vector and stably transfected in T-Rex™-293 cells (Invitrogen, Merelbeke, Belgium). This tetracycline inducible hTRPA1 expression system was used in order to prevent CA^2+ overload in the cultured cells due to sustained TRPA1 expression. hTRPA1/TREx-HEK293 cells (referred to as jTRPA1 cells in the following text) were maintained under standard sterile cell culture conditions. The culture medium for the jTRPA1-HEK cells was DMEN (Gibco BRL, Invitrogen, Merelbeke, Belgium) supplemented with 5 g/l gengticin (Gibco), 5 mL/l blasticidin (Invitorgen), 14.6 g/l L-Glutamine (200 mMl; Gibco), 5 g/l penicillin/streptomycin (5.10-6 IU/I, Gibco), 5.5 g/l pyruvic acid (Gibco) and 10% foetal calf serum (Hyclone, Logan Utah, USA).
For Ca^2+ fluorometry experiments, hTRPA1-HEK cells were resuspended in HBSS seeding medium: HBSS (with CaCl2 and MgCl2: Gibco) supplemented with 14.6 g/l L-Glutamine (200 mM; Gibco), 5 g/l penicillin/streptomycin (5.10-6 IU/l. Gibco), 5.5 g/l pyruvic acid (Gibco) and 10% foetal calf serum (heat inactivated for 30 minutes at 56° C.; Hyclone, Logan Utah, USA). The cells were seeded in poly-D-lysine-coated 384-well round bottom polypropylene plates (Costar Corning, Data Packaging, Cambridge Mass., USA) at 12000 cells/well. Fifty ng/ml tetracycline was added to induce the hTRPA1 expression 24 h before the experiment.
The cells were loaded with 5 mg/l Fluo-4-AM (Molecular Probes, Invitorgen, Merelbeke, Belgium) dissolved in HBSS seeding medium supplemented with 0.7 g/l Probenecid (Sigma) and incubated for 1 h at 37° C. and subsequently at 20° C. for 1 to 2 h. The fluorescence was measured in the FDSS 6000 imaging based plate reader (Hamamutsu Photonics K.K., Hamamutsu City, Japan). The excitation wavelength was 488 nm and the emission wavelength 540 nm. After a control period of 12 seconds the inventive compounds were added and the Ca^2+ signal was measured within 14 minutes after application. Finally, a TRPA1 agonist, 6,11-dihydro-5H-dibenzo[b,e]azepine-10-carboxylic acid methyl ester, was added at a final concentration of 25 nM. The emission ratio was calculated by dividing the emission signal (Em540) by the first EM540 signal of the control period to compensate for the background fluorescence. […] For intracellular Ca^2+ measurements, a compound stock solution (10 to 100 mM) was further diluted in DMSO in order to obtain a final 1% DMSO concentration in the extracellular solution.

Sequence of Human TRPA1 (O75762 whole entry): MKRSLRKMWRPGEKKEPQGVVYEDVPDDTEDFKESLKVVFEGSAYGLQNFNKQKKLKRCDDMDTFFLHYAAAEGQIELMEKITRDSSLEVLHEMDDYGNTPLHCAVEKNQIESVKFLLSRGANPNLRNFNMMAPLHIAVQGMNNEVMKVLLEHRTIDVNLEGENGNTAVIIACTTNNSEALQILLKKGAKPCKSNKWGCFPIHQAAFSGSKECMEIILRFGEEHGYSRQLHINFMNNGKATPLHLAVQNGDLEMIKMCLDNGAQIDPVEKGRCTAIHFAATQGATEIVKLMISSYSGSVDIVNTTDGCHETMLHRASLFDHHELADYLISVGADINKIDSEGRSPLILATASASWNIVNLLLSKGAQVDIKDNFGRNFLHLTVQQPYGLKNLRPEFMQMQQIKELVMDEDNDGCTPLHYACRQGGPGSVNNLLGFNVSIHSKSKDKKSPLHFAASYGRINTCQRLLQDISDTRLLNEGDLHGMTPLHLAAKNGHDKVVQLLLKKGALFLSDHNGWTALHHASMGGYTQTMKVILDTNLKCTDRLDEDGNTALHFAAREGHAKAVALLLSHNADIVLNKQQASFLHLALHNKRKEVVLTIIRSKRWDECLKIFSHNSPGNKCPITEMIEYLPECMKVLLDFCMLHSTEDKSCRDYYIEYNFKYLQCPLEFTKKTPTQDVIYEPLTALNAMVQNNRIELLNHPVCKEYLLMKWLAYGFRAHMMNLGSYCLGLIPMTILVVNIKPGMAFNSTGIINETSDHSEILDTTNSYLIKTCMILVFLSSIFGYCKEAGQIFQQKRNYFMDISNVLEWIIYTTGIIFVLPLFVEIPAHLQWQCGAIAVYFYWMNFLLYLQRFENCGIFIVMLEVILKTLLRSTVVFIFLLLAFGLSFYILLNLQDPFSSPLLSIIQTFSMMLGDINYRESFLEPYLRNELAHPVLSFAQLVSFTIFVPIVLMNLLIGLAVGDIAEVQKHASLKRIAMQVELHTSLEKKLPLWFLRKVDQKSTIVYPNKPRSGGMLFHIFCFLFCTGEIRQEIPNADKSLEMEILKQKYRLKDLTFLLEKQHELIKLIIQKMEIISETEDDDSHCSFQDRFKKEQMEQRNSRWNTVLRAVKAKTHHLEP

Structure (SMILES)	IC50
O=C(NCc1cc(-c2ccc(Br)cc2)nc(NC2CCCC2)n1)[C@@H]1CCCN1S(=O)(=O)c1ccc(F)cc1 [Example 211, 1-(4-Fluoro-benzenesulfonyl)-pyrrolidine-2S-carboxylic acid [6-(4-bromo-phenyl)-2-cyclopentylamino-pyrimidin-4-ylmethyl]-amide]	~1620 nM
CCOC(=O)C1CCN(c2nc(CNC(=O)[C@@H]3CCCN3S(=O)(=O)c3ccc(F)cc3)cc(-c3ccc(Br)cc3)n2)CC1 [Example 214, 1-[4-(4-Bromo-phenyl)-6-({[1-(4-fluoro-benzenesulfonyl)-pyrrolidine-2S-carbonyl]-amino}-methyl)-pyrimidin-2-yl]-piperidine-4-carboxylic acid ethyl ester]	~977 nM
CCCCNc1nc(CNC(=O)[C@@H]2CCCN2S(=O)(=O)c2ccc(F)cc2)cc(-c2ccc(Br)cc2)n1 [Example 215, 1-(4-Fluoro-benzenesulfonyl)-pyrrolidine-2S-carboxylic acid [6-(4-bromo-phenyl)-2-butylamino-pyrimidin-4-ylmethyl]-amide]	1020 nM
CN1CCCN(c2nc(CNC(=O)[C@@H]3CCCN3S(=O)(=O)c3ccc(F)cc3)cc(-c3ccc(Br)cc3)n2)CC1 [Example 218, 1-(4-Fluoro-benzenesulfonyl)-pyrrolidine-2S-carboxylic acid [6-(4-bromo-phenyl)-2-(4-methyl-[1,4]diazepan-1-yl)-pyrimidin-4-ylmethyl]-amide]	> 10000 nM
O=C(NCc1cc(-c2ccc(Br)cc2)nc(NCc2cccnc2)n1)[C@@H]1CCCN1S(=O)(=O)c1ccc(F)cc1 [Example 219, 1-(4-Fluoro-benzenesulfonyl)-pyrrolidine-2S-carboxylic acid {6-(4-bromo-phenyl)-2-[(pyridin-3-ylmethyl)-amino]-pyrimidin-4-ylmethyl}-amide]	~2690 nM
O=C(NCc1cc(-c2ccc(Br)cc2)nc(NCCc2ccc(Cl)cc2Cl)n1)[C@@H]1CCCN1S(=O)(=O)c1ccc(F)cc1 [Example 221, 1-(4-Fluoro-benzenesulfonyl)-pyrrolidine-2S-carboxylic acid {6-(4-bromo-phenyl)-2-[2-(2,4-dichloro-phenyl)-ethylamino]-pyrimidin-4-ylmethyl}-amide]	2040 nM
O=C(NCc1cc(-c2ccc3c(c2)OCO3)nc(Nc2cccc(Cl)c2)n1)[C@@H]1CCCN1S(=O)(=O)c1ccc(F)cc1 [Example 223, 1-(4-Fluoro-benzenesulfonyl)-pyrrolidine-2S-carboxylic acid [6-benzo[1,3]dioxol-5-yl-2-(3-chloro-phenylamino)-pyrimidin-4-ylmethyl]-amide]	> 10000 nM
O=C(NCc1cc(-c2ccc3c(c2)OCO3)nc(Nc2ccc(Cl)cc2)n1)[C@@H]1CCCN1S(=O)(=O)c1ccc(F)cc1 [Example 224, 1-(4-Fluoro-benzenesulfonyl)-pyrrolidine-2S-carboxylic acid [6-benzo[1,3]dioxol-5-yl-2-(4-chloro-phenylamino)-pyrimidin-4-ylmethyl]-amide]	> 10000 nM
O=C(NCc1cc(-c2ccc3c(c2)OCO3)nc(Nc2ccc(F)cc2)n1)[C@@H]1CCCN1S(=O)(=O)c1ccc(F)cc1 [Example 225, 1-(4-Fluoro-benzenesulfonyl)-pyrrolidine-2S-carboxylic acid [6-benzo[1,3]dioxol-5-yl-2-(4-fluoro-phenylamino)-pyrimidin-4-ylmethyl]-amide]	2510 nM
O=C(NCc1cc(-c2ccc(F)cc2)nc(N2CCN(c3ccccc3F)CC2)n1)[C@@H]1CCCN1S(=O)(=O)c1ccc(F)cc1 [Example 227, 1-(4-Fluoro-benzenesulfonyl)-pyrrolidine-2S-carboxylic acid {6-(4-fluoro-phenyl)-2-[4-(2-fluoro-phenyl)-piperazin-1-yl]-pyrimidin-4-ylmethyl}-amide]	1170 nM
N#Cc1ccc(-c2cc(CNC(=O)[C@@H]3CCCN3S(=O)(=O)c3ccc(F)cc3)nc(N3CCN(c4ccccc4F)CC3)n2)cc1 [Example 229, 1-(4-Fluoro-benzenesulfonyl)-pyrrolidine-2-carboxylic acid {6-(4-cyano-phenyl)-2-[4-(2-fluoro-phenyl)-piperazin-1-yl]-pyrimidin-4-ylmethyl}-amide]	1590 nM

Further compounds by falling IC50, results first:

IC50	Structure (SMILES)
9120 nM	O=C(NCc1cc(-c2ccc(Br)cc2)nc(N2CCc3ccccc3C2)n1)[C@@H]1CCCN1S(=O)(=O)c1ccc(F)cc1 [Example 222, 1-(4-Fluoro-benzenesulfonyl)-pyrrolidine-2S-carboxylic acid [6-(4-bromo-phenyl)-2-(3,4-dihydro-1H-isoquinolin-2-yl)-pyrimidin-4-ylmethyl]-amide]
~4470 nM	CN1CCN(c2nc(CNC(=O)[C@@H]3CCCN3S(=O)(=O)c3ccc(F)cc3)cc(-c3ccc(Br)cc3)n2)CC1 [Example 220, 1-(4-Fluoro-benzenesulfonyl)-pyrrolidine-2S-carboxylic acid [6-(4-bromo-phenyl)-2-(4-methyl-piperazin-1-yl)-pyrimidin-4-ylmethyl]-amide]
2400 nM	O=C(NCc1cc(-c2ccc(Br)cc2)nc(N2CCC(Cc3ccccc3)CC2)n1)[C@@H]1CCCN1S(=O)(=O)c1ccc(F)cc1 [Example 213, 1-(4-Fluoro-benzenesulfonyl)-pyrrolidine-2S-carboxylic acid [2-(4-benzyl-piperidin-1-yl)-6-(4-bromo-phenyl)-pyrimidin-4-ylmethyl]-amide]
2290 nM	COc1cccc(OC)c1-c1cc(CNC(=O)[C@@H]2CCCN2S(=O)(=O)c2ccc(F)cc2)nc(N2CCN(c3ccccc3F)CC2)n1 [Example 228, 1-(4-Fluoro-benzenesulfonyl)-pyrrolidine-2S-carboxylic acid {6-(2,6-dimethoxy-phenyl)-2-[4-(2-fluoro-phenyl)-piperazin-1-yl]-pyrimidin-4-ylmethyl}-amide]
1200 nM	O=C(NCc1cc(-c2ccc(Br)cc2)nc(N2CCN(c3ccccn3)CC2)n1)[C@@H]1CCCN1S(=O)(=O)c1ccc(F)cc1 [Example 216, 1-(4-Fluoro-benzenesulfonyl)-pyrrolidine-2S-carboxylic acid [6-(4-bromo-phenyl)-2-(4-pyridin-2-yl-piperazin-1-yl)-pyrimidin-4-ylmethyl]-amide]
871 nM	O=C(NCc1cc(-c2ccc(Br)cc2)nc(N2CCOCC2)n1)[C@@H]1CCCN1S(=O)(=O)c1ccc(F)cc1 [Example 217, 1-(4-Fluoro-benzenesulfonyl)-pyrrolidine-2S-carboxylic acid [6-(4-bromo-phenyl)-2-morpholin-4-yl-pyrimidin-4-ylmethyl]-amide]
676 nM	CC(Nc1nc(CNC(=O)[C@@H]2CCCN2S(=O)(=O)c2ccc(F)cc2)cc(-c2ccc(Br)cc2)n1)c1ccccc1 (stereo partly drawn) [Example 212, 1-(4-Fluoro-benzenesulfonyl)-pyrrolidine-2S-carboxylic acid [6-(4-bromo-phenyl)-2-(1(R,S)-phenyl-ethylamino)-pyrimidin-4-ylmethyl]-amide]
115 nM	O=C(NCc1cc(-c2ccc(OC(F)(F)F)cc2)nc(N2CCN(c3ccccc3F)CC2)n1)[C@@H]1CCCN1S(=O)(=O)c1ccc(F)cc1 [Example 226, 1-(4-Fluoro-benzenesulfonyl)-pyrrolidine-2S-carboxylic acid [2-[4-(2-fluoro-phenyl)-piperazin-1-yl]-6-(4-trifluoromethoxy-phenyl)-pyrimidin-4-ylmethyl]-amide]
